{"source": "patent US5473039A", "about": "“Polypeptide analogs of apolipoprotein E, diagnostic systems and methods using the analogs” (The Scripps Research Institute, priority 1991, dated 1995)", "key": {"[1]": {"system": "ovarian theca/interstitial cells", "assay": "ovarian androgen (androstenedione) production, LH-stimulated cultures", "assay_type": "cell-based, rats", "settings": "48 hours", "source_text": "The cell system used to examine the effect of various peptides and conjugates on ovarian androgen production was that described by Curtiss et al., J. Biol. Chem., 263:10965, (1988). Briefly, hypophysectomized (pituitary removed) immature female rats are sacrificed by cervical dislocation. The ovaries taken from the rats were trimmed free of fat and other non-ovarian tissues, cut into approximately six to eight pieces per ovary and dissociated in a solution of collagenase Dnaase which degrades the connective tissue releasing cell clusters. Approximately one to two hours of 37C incubation is required to dissociate the tissue. The cells were washed three times with fresh McCoy's 5A modified medium supplemented with glutamine and penicillin/streptomycin. No serum was added to this medium. The cells were cultured over night in 10 ml of medium in a T-25 flask to allow the non-steroidogenic cells to adhere. The next day non-adherent cells were recovered, washed three times with fresh media, counted and plated at a density of 1×10^3/ ml aliquotting 0.2 ml per well of a 96-well microtiter plate. All media in the experiment contains luteinizing hormone (LH) at 4 ng/ml and human high density lipoprotein (HDL) at 300 μg protein/mi. Monomeric peptides, peptide-BSA conjugates and self-conjugated peptide preparations at various concentrations (0.2 to 50 μg/ml) were added to the cells. The cells were then cultured for 48 hours at 37C, the supernatants were recovered, transferred to a clean 96-well microtiter plate and kept at -20C until the concentrations of androstenedione and progesterone were measured by radioimmunoassay. Each data point represents the average of measured androstenedione concentrations in four wells per treatment, and the standard error was less than 10% for all data points.\nThe ability of tandem Apo E peptide p(141-155)2 and self-conjugates of this peptide to affect ovarian androgen production was examined using the assay described in Example 4. […] After 48 hours of culture, the supernatants were collected, the androstenedione concentration measured by radioimmunoassay. […]"}, "[2]": {"system": "Human peripheral blood mononuclear (PBM) cells", "assay": "PHA-stimulated PBM cell proliferation in serum-free CFBI medium", "assay_type": "cell-based", "method": "In these studies, human peripheral blood mononuclear (PBM) cells were isolated and assayed for phytohemagglutinin (PHA)-stimulated proliferation as described by Pepe et al (J. Immunol., 136:3716-3723, 1986) except that the cells were resuspended and cultured in a serum-free and protein-free CFBI medium as described by Shive et al, Proc. Natl. Acad. Sci. […] After 48 h the cultures were pulsed for 18 h with […] of [^3 H]-methylthymidine and harvested onto glass fiber filters. Radioactivity of the filters was counted in a Beckman liquid scintillation counter. […] The average biological activity of each polypeptide for inhibiting lymphocyte […] proliferation is shown in Table 6, and is expressed as an average specific activity, which is the peptide concentration that causes a 50% reduction in activity."}}}
{"smiles": "CC(C)C[C@H](NC(=O)[C@H](CC(=O)O)NC(=O)[C@H](CC(=O)O)NC(=O)[C@H](C)NC(=O)[C@H](CC(=O)O)NC(=O)[C@H](CCCNC(=N)N)NC(=O)[C@H](CC(C)C)NC(=O)[C@H](CC(C)C)NC(=O)[C@H](CCCNC(=N)N)NC(=O)[C@H](CCCCN)NC(=O)[C@H](CCCNC(=N)N)NC(=O)[C@H](CC(C)C)NC(=O)[C@H](CCCCN)NC(=O)[C@H](CCCNC(=N)N)NC(=O)[C@H](CC(C)C)NC(=O)[C@H](CC(C)C)NC(=O)[C@H](CC(=O)O)NC(=O)[C@H](CC(=O)O)NC(=O)[C@H](C)NC(=O)[C@H](CC(=O)O)NC(=O)[C@H](CCCNC(=N)N)NC(=O)[C@H](CC(C)C)NC(=O)[C@H](CC(C)C)NC(=O)[C@H](CCCNC(=N)N)NC(=O)[C@H](CCCCN)NC(=O)[C@H](CCCNC(=N)N)NC(=O)[C@H](CC(C)C)NC(=O)[C@H](CCCCN)NC(=O)[C@H](CCCNC(=N)N)NC(=O)[C@@H](N)CC(C)C)C(=O)O", "note": "[p(141-155)2]", "values": [{"measurement": "concentrations at which androstenedione production was enhanced", "setting": "[1]", "result": "less than 0.04 μg/ml"}, {"measurement": "concentrations that inhibited androstenedione production", "setting": "[1]; dose-dependent", "result": "0.2 to 2", "unit": "µg/mL"}, {"measurement": "biologic activity (inhibition of lymphocyte proliferation)", "setting": "[2]", "result": "loss of biologic activity"}, {"measurement": "peptide concentration above which uptake of tritiated thymidine / lymphocyte proliferation was inhibited", "setting": "[2]", "result": "above 4 uM"}, {"measurement": "IC50", "setting": "[2]; read-out: Average Specific Activity (peptide concentration that causes a 50% reduction in activity)", "result": "4.8 ± 1.1", "unit": "µM"}]}
